Assay results taken from ChEMBL document CHEMBL1129214, “Synthesis and structure-activity relationship of C-3 quaternary ammonium cephalosporins exhibiting anti-MRSA activities” (1997).
Converted amounts (≈) assume the structure as drawn.

What was measured:
Format in all cases: functional
[1] = system: Staphylococcus aureus; assay: In vitro activity against MRSA (A27217; heterogeneous strain) by standard broth dilution method
[2] = system: Staphylococcus aureus; assay: In vitro activity against MRSA (A27223; homogeneous strain) by standard broth dilution method
[3] = system: Staphylococcus aureus; assay: In vitro activity against MRSA (A27226; homogeneous strain) by standard broth dilution method
[4] = system: Staphylococcus aureus; assay: In vitro activity against MRSA (A27621; homogeneous strain) by standard broth dilution method
[5] = system: Staphylococcus aureus; assay: In vitro activity against MSSA (A15090) by standard broth dilution method
[6] = system: Staphylococcus aureus; assay: In vitro activity against MSSA (A20241) by standard broth dilution method
[7] = In vivo inhibitory activity of compound against staphylococcus aureus; […]; conditions: read-out: PD50
[8] = In vivo inhibitory activity of compound against staphylococcus aureus; conditions: read-out: PD50
[9] = Staphylococcus aureus, read-out: MIC

Row | MIC [1, 9] | MIC [2, 9] | MIC [3, 9] | MIC [4, 9] | MIC [5, 9] | MIC [6, 9] | SMILES | ED50 [7] | MIC [1] | MIC [2] | MIC [3] | MIC [4] | MIC [5] | MIC [6] | ED50 [8]
1 | 1 µg/mL (≈ 1.77 µM) | 2 µg/mL (≈ 3.54 µM) | 1 µg/mL (≈ 1.77 µM) | 2 µg/mL (≈ 3.54 µM) | 0.5 µg/mL (≈ 0.886 µM) | 0.5 µg/mL (≈ 0.886 µM) | O=C(CSc1cc(Cl)ccc1Cl)N[C@@H]1C(=O)N2C(C(=O)[O-])=C(C[n+]3cccc4c3CCCC4)CS[C@H]12 |  |  |  |  |  |  |  | 
2 | 2 µg/mL (≈ 3.38 µM) | 2 µg/mL (≈ 3.38 µM) | 2 µg/mL (≈ 3.38 µM) | 2 µg/mL (≈ 3.38 µM) | 0.5 µg/mL (≈ 0.844 µM) | 1 µg/mL (≈ 1.69 µM) | NC(=O)c1ccc2n(cc[n+]2CC2=C(C(=O)[O-])N3C(=O)[C@@H](NC(=O)CSc4cc(Cl)ccc4Cl)[C@H]3SC2)c1 |  |  |  |  |  |  |  | 
3 | 2 µg/mL (≈ 3.64 µM) | 4 µg/mL (≈ 7.28 µM) | 1 µg/mL (≈ 1.82 µM) | 2 µg/mL (≈ 3.64 µM) | 0.25 µg/mL (≈ 0.455 µM) | 0.5 µg/mL (≈ 0.91 µM) | O=C(CSc1cc(Cl)ccc1Cl)N[C@@H]1C(=O)N2C(C(=O)[O-])=C(C[n+]3ccn4ccccc43)CS[C@H]12 |  |  |  |  |  |  |  | 
4 | 1 µg/mL (≈ 1.82 µM) | 2 µg/mL (≈ 3.64 µM) | 2 µg/mL (≈ 3.64 µM) | 2 µg/mL (≈ 3.64 µM) | 1 µg/mL (≈ 1.82 µM) | 1 µg/mL (≈ 1.82 µM) | O=C(CSc1cc(Cl)ccc1Cl)N[C@@H]1C(=O)N2C(C(=O)[O-])=C(C[n+]3cccc4cc[nH]c43)CS[C@H]12 |  |  |  |  |  |  |  | 
5 | 1 µg/mL (≈ 1.82 µM) | 2 µg/mL (≈ 3.63 µM) | 1 µg/mL (≈ 1.82 µM) | 2 µg/mL (≈ 3.63 µM) | 0.125 µg/mL (≈ 0.227 µM) | 0.125 µg/mL (≈ 0.227 µM) | O=C(CSc1cc(Cl)ccc1Cl)N[C@@H]1C(=O)N2C(C(=O)[O-])=C(C[n+]3cccc4[nH]cnc43)CS[C@H]12 |  |  |  |  |  |  |  | 
6 | 1 µg/mL (≈ 1.73 µM) | 1 µg/mL (≈ 1.73 µM) | 1 µg/mL (≈ 1.73 µM) | 1 µg/mL (≈ 1.73 µM) | 1 µg/mL (≈ 1.73 µM) | 1 µg/mL (≈ 1.73 µM) | O=C(CSc1cc(Cl)ccc1Cl)N[C@@H]1C(=O)N2C(C(=O)[O-])=C(C[n+]3ccc4c(O)cccc4c3)CS[C@H]12 |  |  |  |  |  |  |  | 
7 | 2 µg/mL (≈ 3.57 µM) | 2 µg/mL (≈ 3.57 µM) | 2 µg/mL (≈ 3.57 µM) | 2 µg/mL (≈ 3.57 µM) | 0.5 µg/mL (≈ 0.892 µM) | 0.5 µg/mL (≈ 0.892 µM) | O=C(CSc1cc(Cl)ccc1Cl)N[C@@H]1C(=O)N2C(C(=O)[O-])=C(C[n+]3ccc4ccccc4c3)CS[C@H]12 |  |  |  |  |  |  |  | 
8 | 2 µg/mL (≈ 3.54 µM) | 4 µg/mL (≈ 7.09 µM) | 2 µg/mL (≈ 3.54 µM) | 4 µg/mL (≈ 7.09 µM) | 0.5 µg/mL (≈ 0.886 µM) | 0.5 µg/mL (≈ 0.886 µM) | O=C(CSc1cc(Cl)ccc1Cl)N[C@@H]1C(=O)N2C(C(=O)[O-])=C(C[n+]3ccc4c(c3)CCCC4)CS[C@H]12 |  |  |  |  |  |  |  | 

The remaining lines, values behind:

Row | SMILES | MIC [1, 9] | MIC [2, 9] | MIC [3, 9] | MIC [4, 9] | MIC [5, 9] | MIC [6, 9] | ED50 [7] | MIC [1] | MIC [2] | MIC [3] | MIC [4] | MIC [5] | MIC [6] | ED50 [8]
9 | NCC(=O)NC1C[N+]2(CC3=C(C(=O)[O-])N4C(=O)[C@@H](NC(=O)CSc5cc(Cl)ccc5Cl)[C@H]4SC3)CCC1CC2 (stereo partly drawn) | 4 µg/mL (≈ 6.51 µM) | 4 µg/mL (≈ 6.51 µM) | 2 µg/mL (≈ 3.25 µM) | 4 µg/mL (≈ 6.51 µM) | 0.5 µg/mL (≈ 0.814 µM) | 0.5 µg/mL (≈ 0.814 µM) |  |  |  |  |  |  |  | 
10 | NC(=O)COc1cccc2c[n+](CC3=C(C(=O)[O-])N4C(=O)[C@@H](NC(=O)CSc5cc(Cl)ccc5Cl)[C@H]4SC3)ccc12 | 2 µg/mL (≈ 3.16 µM) | 2 µg/mL (≈ 3.16 µM) | 2 µg/mL (≈ 3.16 µM) | 2 µg/mL (≈ 3.16 µM) | 1 µg/mL (≈ 1.58 µM) | 1 µg/mL (≈ 1.58 µM) |  |  |  |  |  |  |  | 
11 | O=C(CSc1cc(Cl)ccc1Cl)N[C@@H]1C(=O)N2C(C(=O)[O-])=C(C[N+]34CCC(CC3)CC4)CS[C@H]12 | 2 µg/mL (≈ 3.69 µM) | 2 µg/mL (≈ 3.69 µM) | 4 µg/mL (≈ 7.37 µM) | 4 µg/mL (≈ 7.37 µM) | 1 µg/mL (≈ 1.84 µM) | 1 µg/mL (≈ 1.84 µM) |  |  |  |  |  |  |  | 
12 | O=C(C[N+]12CCN(CC1)CC2)N[C@@H]1C(=O)N2C(C(=O)[O-])=C(CSc3cc(Cl)ccc3Cl)CS[C@H]12 | 128 µg/mL (≈ 236 µM) | 128 µg/mL (≈ 236 µM) | 128 µg/mL (≈ 236 µM) | 128 µg/mL (≈ 236 µM) | 4 µg/mL (≈ 7.36 µM) | 4 µg/mL (≈ 7.36 µM) |  |  |  |  |  |  |  | 
13 | O=C(CSc1cc(Cl)ccc1Cl)N[C@@H]1C(=O)N2C(C(=O)[O-])=C(C[N+]34CCN(CC3)CC4)CS[C@H]12 | 2 µg/mL (≈ 3.68 µM) | 4 µg/mL (≈ 7.36 µM) | 4 µg/mL (≈ 7.36 µM) | 4 µg/mL (≈ 7.36 µM) | 0.25 µg/mL (≈ 0.46 µM) | 0.5 µg/mL (≈ 0.92 µM) | 0.8 mg/kg |  |  |  |  |  |  | 
14 | O=C(CSc1cc(Cl)ccc1Cl)N[C@@H]1C(=O)N2C(C(=O)[O-])=C(C[N+]34CCC(CC3)C(O)C4)CS[C@H]12 (stereo partly drawn) | 1 µg/mL (≈ 1.79 µM) | 1 µg/mL (≈ 1.79 µM) | 1 µg/mL (≈ 1.79 µM) | 1 µg/mL (≈ 1.79 µM) | 0.25 µg/mL (≈ 0.448 µM) | 0.25 µg/mL (≈ 0.448 µM) |  |  |  |  |  |  |  | 
15 | O=C(CSc1cc(Cl)ccc1Cl)N[C@@H]1C(=O)N2C(C(=O)[O-])=C(C[N+]34CN5CN(CN(C5)C3)C4)CS[C@H]12 | 4 µg/mL (≈ 7 µM) | 8 µg/mL (≈ 14 µM) | 8 µg/mL (≈ 14 µM) | 8 µg/mL (≈ 14 µM) | 0.125 µg/mL (≈ 0.219 µM) | 0.125 µg/mL (≈ 0.219 µM) |  |  |  |  |  |  |  | 
16 | C[N+]1(CC2=C(C(=O)[O-])N3C(=O)[C@@H](NC(=O)CSc4cc(Cl)ccc4Cl)[C@H]3SC2)C2CCCC1CC2 (stereo partly drawn) | 2 µg/mL (≈ 3.59 µM) | 2 µg/mL (≈ 3.59 µM) | 2 µg/mL (≈ 3.59 µM) | 2 µg/mL (≈ 3.59 µM) | 0.25 µg/mL (≈ 0.449 µM) | 0.25 µg/mL (≈ 0.449 µM) |  |  |  |  |  |  |  | 
17 | C[N+]1(CC2=C(C(=O)[O-])N3C(=O)[C@@H](NC(=O)CSc4cc(Cl)ccc4Cl)[C@H]3SC2)C2CCC1CC(=O)C2 (stereo partly drawn) | 2 µg/mL (≈ 3.51 µM) | 4 µg/mL (≈ 7.01 µM) | 4 µg/mL (≈ 7.01 µM) | 4 µg/mL (≈ 7.01 µM) | 0.5 µg/mL (≈ 0.876 µM) | 0.5 µg/mL (≈ 0.876 µM) |  |  |  |  |  |  |  | 
18 | NCCC(=O)NC1C[N+]2(CC3=C(C(=O)[O-])N4C(=O)[C@@H](NC(=O)CSc5cc(Cl)ccc5Cl)[C@H]4SC3)CCC1CC2 (stereo partly drawn) | 2 µg/mL (≈ 3.18 µM) | 4 µg/mL (≈ 6.36 µM) | 4 µg/mL (≈ 6.36 µM) | 4 µg/mL (≈ 6.36 µM) | 1 µg/mL (≈ 1.59 µM) | 1 µg/mL (≈ 1.59 µM) |  |  |  |  |  |  |  | 
19 | C[N+]1(CC2=C(C(=O)[O-])N3C(=O)[C@@H](NC(=O)CSc4cc(Cl)ccc4Cl)[C@H]3SC2)[C@@H]2CC[C@H]1C[C@@H](O)C2 (stereo in doubt; 6r) | 1 µg/mL (≈ 1.75 µM) | 2 µg/mL (≈ 3.49 µM) | 2 µg/mL (≈ 3.49 µM) | 2 µg/mL (≈ 3.49 µM) | 0.25 µg/mL (≈ 0.437 µM) | 0.25 µg/mL (≈ 0.437 µM) | 0.8 mg/kg |  |  |  |  |  |  | 
20 | C[N+]1(CC2=C(C(=O)[O-])N3C(=O)[C@@H](NC(=O)CSc4cc(Cl)ccc4Cl)[C@H]3SC2)[C@@H]2CC[C@H]1C[C@@H](O)C2 (stereo in doubt; 6s) |  |  |  |  |  |  |  | 1 µg/mL (≈ 1.75 µM) | 4 µg/mL (≈ 6.99 µM) | 4 µg/mL (≈ 6.99 µM) | 2 µg/mL (≈ 3.49 µM) | 0.125 µg/mL (≈ 0.218 µM) | 0.125 µg/mL (≈ 0.218 µM) | 9.5 mg/kg
